Measurements reported in patent US20070232615A1, “Chemical Compounds” (priority 2004, published 2007).

What follows are compounds tested on HIV (assay: HOS HIV infectivity assay (Table 2, strain not given)). Settings: Human immunodeficiency virus 1, read-out: Activity Level.
Assay type: cell-based
Method: HOS HIV-1 Infectivity Assay
Compounds were profiled against two HIV-1 viruses, the M-tropic (CCR5 utilizing) Ba-L strain and the T-tropic (CXCR4 utilizing) IIIB strain. Both viruses were propagated in human peripheral blood lymphocytes. Compounds were tested for there ability to block infection of the HOS cell line (expressing hCXCR4/hCCR5/hCD4/pHIV-LTR-luciferase) by either HIV-1 Ba-L or HIV-1 IIIB. Compound cytotoxicity was also examined in the absence of virus addition.
HOS HIV-1 Infectivity Assay Format
HOS cells (expressing hCXCR4/hCCR5/hCD4/pHIV-LTR-luciferase) were harvested and diluted in Dulbeccos modified Eagles media supplemented with 2% FCS and non-essential amino acid to a concentration of 60,000 cells/ml. The cells were plated into 96-well plates (100 ul per well) and the plates were placed in a tissue culture incubator (37° C.; 5% CO2/95% air) for a period of 24 h.
Subsequently, 50 ul of the desired drug solution (4 times the final concentration) was added to each well and the plates were returned to the tissue culture incubator (37° C.; 5% CO2/95% air) for 1 h. Following this incubation 50 ul of diluted virus was added to each well (approximately 2 million RLU per well of virus). The plates were returned to the tissue culture incubator (37° C.; 5% CO2/95% air) and were incubated for a further 96 h.
Following this incubation the endpoint for the virally infected cultures was quantified following addition of Steady-Glo Luciferase assay system reagent (Promega, Madison, Wis.). Cell viability or non-infected cultures was measured using a CellTiter-Glo luminescent cell viability assay system (Promega, Madison, Wis.). All luminescent readouts are performed on a Topcount luminescence detector (Packard, Meridien, Conn.).
For `CN1CCN(c2cccc3nc(CN(Cc4ccccc4Br)[C@H]4CCCc5cccnc54)cn23)CC1` [Example 63, (8S)—N-[(2-Bromophenyl)methyl]-N-{[5-(4-methyl-1-piperazinyl)imidazo[1,2-a]pyridin-2-yl]methyl}-5,6,7,8-tetrahydro-8-quinolinamine], the IC50 was 100 to 500 nM. Work on `CN1CCN(c2cccc3nc(CN(Cc4ccc(C(F)(F)F)cc4)[C@H]4CCCc5cccnc54)cn23)CC1` [Example 71, (8S)—N-{[5-(4-Methyl-1-piperazinyl)imidazo[1,2-a]pyridin-2-yl]methyl}-N-{[4-(trifluoromethyl)phenyl]methyl}-5,6,7,8-tetrahydro-8-quinolinamine] yielded an IC50 of less than 100 nM. Compound `CN1CCN(c2cccc3nc(CN(Cc4cccc(Br)c4)[C@H]4CCCc5cccnc54)cn23)CC1` [Example 64, (8S)—N-[(3-Bromophenyl)methyl]-N-{[5-(4-methyl-1-piperazinyl)imidazo[1,2-a]pyridin-2-yl]methyl}-5,6,7,8-tetrahydro-8-quinolinamine] has an IC50 of less than 100 nM. `CN(Cc1cn2c(N3CC(N)C3)cccc2n1)C1CCCc2cccnc21` (centres unmarked) [Example 25, N-{[5-(3-Amino-1-azetidinyl)imidazo[1,2-a]pyridin-2-yl]methyl}-N-methyl-5,6,7,8-tetrahydro-8-quinolinamine] gave an IC50 of less than 100 nM. `CN1CCN(c2cccc3nc(CN(Cc4ccccc4C(F)(F)F)[C@H]4CCCc5cccnc54)cn23)CC1` [Example 69, (8S)—N-{[5-(4-Methyl-1-piperazinyl)imidazo[1,2-a]pyridin-2-yl]methyl}-N-{[2-(trifluoromethyl)phenyl]methyl}-5,6,7,8-tetrahydro-8-quinolinamine] showed an IC50 of 100 to 500 nM. `CC(C)N(Cc1cn2c(N3CC[C@@H](N(C)C)C3)cccc2n1)[C@H]1CCCc2cccnc21` [Example 98, (8S)—N-({5-[(3R)-3-(Dimethylamino)-1-pyrrolidinyl]imidazo[1,2-a]pyridin-2-yl}methyl)-N-(1-methylethyl)-5,6,7,8-tetrahydro-8-quinolinamine] gave an IC50 of less than 100 nM. With `CN1CCC(N(C)c2cccc3nc(CN(C)[C@H]4CCCc5cccnc54)cn23)C1` (stereo partly drawn) [Example 86, (8S)—N-Methyl-N-({5-[methyl(1-methyl-3-pyrrolidinyl)amino]imidazo[1,2-a]pyridin-2-yl}methyl)-5,6,7,8-tetrahydro-8-quinolinamine] the IC50 was less than 100 nM. In the case of `CN1CCCN(c2cccc3nc(CN(C)C4CCCc5cccnc54)cn23)CC1` (centres unmarked) [Example 31, N-Methyl-N-{[5-(4-methylhexahydro-1H-1,4-diazepin-1-yl)imidazo[1,2-a]pyridin-2-yl]methyl}-5,6,7,8-tetrahydro-8-quinolinamine], the IC50 is reported as less than 100 nM. `CN(Cc1cn2c(OCCN3CCCCC3)cccc2n1)[C@H]1CCCc2cccnc21` [Example 106, (8S)—N-Methyl-N-[(5-{[2-(1-piperidinyl)ethyl]oxy}imidazo[1,2-a]pyridin-2-yl)methyl]-5,6,7,8-tetrahydro-8-quinolinamine] gave an IC50 of less than 100 nM. For `FC(F)(F)CN(Cc1cn2c(N3CCNCC3)cccc2n1)C1CCCc2cccnc21` (centres unmarked) [Example 22, N-{[5-(1-piperazinyl)imidazo[1,2-a]pyridin-2-yl]methyl}-N-(2,2,2-trifluoroethyl)-5,6,7,8-tetrahydro-8-quinolinamine], the IC50 was 100 to 500 nM. `CC(C)N(Cc1cn2c(N3CCNCC3)cccc2n1)C1CCCc2cccnc21` (centres unmarked) [Example 21, N-(1-Methylethyl)-N-{[5-(1-piperazinyl)imidazo[1,2-a]pyridin-2-yl]methyl}-5,6,7,8-tetrahydro-8-quinolinamine] showed an IC50 of less than 100 nM. `CC(C)CN(Cc1cn2c(N3CCN(C)CC3)cccc2n1)[C@H]1CCCc2cccnc21` [Example 53, (8S)—N-{[5-(4-Methyl-1-piperazinyl)imidazo[1,2-a]pyridin-2-yl]methyl}-N-(2-methylpropyl)-5,6,7,8-tetrahydro-8-quinolinamine] showed an IC50 of less than 100 nM. `CN(Cc1cn2c(NCCN3CCCC3)cccc2n1)[C@H]1CCCc2cccnc21` [Example 102, (8S)—N-Methyl-N-[(5-{[2-(1-pyrrolidinyl)ethyl]amino}imidazo[1,2-a]pyridin-2-yl)methyl]-5,6,7,8-tetrahydro-8-quinolinamine] was tested, and the IC50 was less than 100 nM. With `CN(C)[C@H]1CCN(c2cccc3nc(CN(C)[C@H]4CCCc5cccnc54)cn23)C1` [Example 91, (8S)—N-({5-[(3S)-3-(Dimethylamino)-1-pyrrolidinyl]imidazo[1,2-a]pyridin-2-yl}methyl)-N-methyl-5,6,7,8-tetrahydro-8-quinolinamine] the IC50 was less than 100 nM. In the case of `CC(C)c1ccc(CN(Cc2cn3c(N4CCN(C)CC4)cccc3n2)[C@H]2CCCc3cccnc32)cc1` [Example 75, (8S)—N-{[4-(1-Methylethyl)phenyl]methyl}-N-{[5-(4-methyl-1-piperazinyl)imidazo[1,2-a]pyridin-2-yl]methyl}-5,6,7,8-tetrahydro-8-quinolinamine], the IC50 is reported as less than 100 nM. `CN(Cc1cn2c(N3CC[C@@H](N)C3)cccc2n1)[C@H]1CCCc2cccnc21` [Example 92, (8S)—N-({5-[(3R)-3-Amino-1-pyrrolidinyl]imidazo[1,2-a]pyridin-2-yl}methyl)-N-methyl-5,6,7,8-tetrahydro-8-quinolinamine] showed an IC50 of less than 100 nM. Work on `CN(C)C1CN(c2cccc3nc(CN(C)C4CCCc5cccnc54)cn23)C1` (centres unmarked) [Example 26, N-({5-[3-(Dimethylamino)-1-azetidinyl]imidazo[1,2-a]pyridin-2-yl}methyl)-N-methyl-5,6,7,8-tetrahydro-8-quinolinamine] yielded an IC50 of 100 to 500 nM. With `CN(Cc1cn2c(OCCN3CCCC3)cccc2n1)[C@H]1CCCc2cccnc21` [Example 105, (8S)—N-Methyl-N-[(5-{[2-(1-pyrrolidinyl)ethyl]oxy}imidazo[1,2-a]pyridin-2-yl)methyl]-5,6,7,8-tetrahydro-8-quinolinamine] the IC50 was less than 100 nM. In the case of `CC(C)N(Cc1cn2c(N3CCN(C)CC3)cccc2n1)[C@H]1CCCc2cccnc21` [Example 55, (8S)—N-(1-Methylethyl)-N-{[5-(4-methyl-1-piperazinyl)imidazo[1,2-a]pyridin-2-yl]methyl}-5,6,7,8-tetrahydro-8-quinolinamine], the IC50 is reported as less than 100 nM. `CN1CCN(c2cccc3nc(CN(C)[C@H]4CCCc5cccnc54)cn23)CC1` [Example 50, (8S)—N-Methyl-N-{[5-(4-methyl-1-piperazinyl)imidazo[1,2-a]pyridin-2-yl]methyl}-5,6,7,8-tetrahydro-8-quinolinamine] gave an IC50 of less than 100 nM. Work on `CN(Cc1cn2c(N3CC[C@@H](N(C)C)C3)cccc2n1)C1CCCc2cccnc21` (stereo partly drawn) [Example 23, N-({5-[(3R)-3-(Dimethylamino)-1-pyrrolidinyl]imidazo[1,2-a]pyridin-2-yl}methyl)-N-methyl-5,6,7,8-tetrahydro-8-quinolinamine] yielded an IC50 of less than 100 nM. `CN1CCN(c2cccc3nc(CN(C)C4CCCCc5cccnc54)cn23)CC1` (centres unmarked) [Example 47, N-Methyl-N-{[5-(4-methyl-1-piperazinyl)imidazo[1,2-a]pyridin-2-yl]methyl}-6,7,8,9-tetrahydro-5H-cyclohepta[b]pyridin-9-amine] showed an IC50 of less than 100 nM. `CN1CCN(c2cccc3nc(CN(Cc4ccc(F)cc4)[C@H]4CCCc5cccnc54)cn23)CC1` [Example 62, (8S)—N-[(4-Fluorophenyl)methyl]-N-{[5-(4-methyl-1-piperazinyl)imidazo[1,2-a]pyridin-2-yl]methyl}-5,6,7,8-tetrahydro-8-quinolinamine] showed an IC50 of less than 100 nM.
